According to patent publication US8697694B2, “Substituted pyridine and pyrimidine derivatives and their use in treating viral infections” (priority 2008, dated 2014):

What follows are compounds tested on HCV replicon cells (assay: Cell-based HCV replicon assay (replicon RNA level by real time PCR, Taqman)). Details: Hepatitis C virus, 72 h, HCV replicon cells, harvested day 3, replicon RNA by real time PCR; given as number; read-out: EC90 (μM) range.
Outline: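 Readout: ΔCT between NS5B replicon RNA and GAPDH by real-time RT-PCR in lysates harvested on day 3, fitted sigmoidally; EC50 at ΔCT=1, EC90 at ΔCT=3.2. Compounds tested at ten 2-fold dilutions from 25 μM to 1 μM start, 10% FBS, 0.5% DMSO.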

Row | SMILES | EC90
1 | COCCNc1nc(C)c(-c2cc3cc(OCC4CC4)ncc3o2)c(N[C@@H]2C[C@H](CO)[C@@H](O)[C@H]2O)n1 [Example 59] | 2 µM
2 | Cc1nc(NCC2CC2)nc(N[C@@H]2C[C@H](CO)[C@@H](O)[C@H]2O)c1-c1cc2cc(OC(C)C)nc(C)c2o1 [Example 39] | 0.1 µM
3 | COCCNc1nc(C)c(-c2cc3cc(OCC(C)(C)C)nc(C)c3o2)c(N[C@@H]2C[C@H](CO)[C@@H](O)[C@H]2O)n1 [Example 49] | > 25 µM

Same assay, conditions: Hepatitis C virus, 72 h, HCV replicon cells, harvested day 3, replicon RNA by real time PCR; reported as range class; read-out: EC90 (μM) range

Row | SMILES | EC90
4 | Nc1nc(Cl)c(-c2cc3cnc(=O)[nH]c3o2)c(N[C@@H]2C[C@H](CO)[C@@H](O)[C@H]2O)n1 [Example 307] | > 5 µM
5 | CCCOCCNc1nc(C)c(-c2nc3ccccc3s2)c(N[C@@H]2C[C@H](CO)[C@@H](O)[C@H]2O)n1 [Example 227] | < 0.5 µM
6 | Nc1nc(Cl)c(-c2ccc(C=O)o2)c(N[C@@H]2C[C@H](CO)[C@@H](O)[C@H]2O)n1 [Example 156] | > 5 µM
7 | Nc1nc(Cl)c(-c2ccccc2)c(N[C@@H]2C[C@H](CO)[C@@H](O)[C@H]2O)n1 [Example 5] | > 5 µM
8 | COc1cc2cc(-c3c(Cl)nc(N)nc3N[C@@H]3C[C@H](COC(=O)C(F)(F)F)[C@@H](O)[C@H]3O)oc2cn1 [Example 10] | < 0.5 µM
9 | Cc1nc(NCCCC(F)(F)F)nc(N[C@@H]2C[C@H](CO)[C@@H](O)[C@H]2O)c1-c1nc2ccccc2s1 [Example 225] | < 0.5 µM
10 | Nc1nc(N[C@@H]2C[C@H](CO)[C@@H](O)[C@H]2O)c(-c2ncco2)c(-c2ncco2)n1 [Example 107] | > 5 µM
11 | COc1cc2cc(-c3c(Cl)nc(N)nc3N[C@@H]3C[C@H](CO)[C@@H](O)[C@H]3O)oc2cn1 [Example 11] | < 0.5 µM
12 | COCCCNc1nc(Cl)c(-c2nc3ccccc3s2)c(N[C@@H]2C[C@H](CO)[C@@H](O)[C@H]2O)n1 [Example 222] | < 0.5 µM
13 | CN(C)c1ccc2nc(-c3c(Cl)nc(N)nc3N[C@@H]3C[C@H](CO)[C@@H](O)[C@H]3O)sc2c1 [Example 115] | > 5 µM
14 | Nc1nc(Cl)c(-c2ccc3c(c2)OCO3)c(N[C@@H]2C[C@H](CO)[C@@H](O)[C@H]2O)n1 [Example 151] | > 5 µM
15 | CC(=O)OCCNc1nc(C)c(-c2nc3ccccc3s2)c(N[C@@H]2C[C@H](CO)[C@@H](O)[C@H]2O)n1 [Example 211] | < 0.5 µM

Same assay, conditions: Hepatitis C virus, 72 h, HCV replicon cells, harvested on day 3, replicon RNA by real time PCR; calculated EC90 reported as range class; read-out: EC90 (μM) range

Row | SMILES | EC90
16 | CC(C)(C)CNc1nc(Cl)c(-c2nc3ccccc3s2)c(N[C@@H]2C[C@H](CO)[C@@H](O)[C@H]2O)n1 [Example 436] | < 0.5 µM
17 | COc1ccc(CNc2nc(C)c(-c3nc4ccccc4s3)c(N[C@@H]3C[C@H](CO)[C@H]4OC(C)(C)O[C@H]43)n2)cc1OC [Example 708] | < 0.5 µM
18 | CCOCCNc1nc(C)c(-c2cc3cc(C(F)(F)F)ncc3o2)c(N[C@@H]2C[C@H](CO)[C@H]3OC(C)(C)O[C@H]32)n1 [Example 134] | > 5 µM
19 | Cc1nc(NCc2cccc(F)c2)nc(N[C@@H]2C[C@H](CO)[C@@H](O)[C@H]2O)c1-c1nc2ccccc2s1 [Example 244] | < 0.5 µM
20 | COCc1cc2cc(-c3c(C)nc(NCC(C)(C)C)nc3N[C@@H]3C[C@H](CO)[C@H]4OC(C)(C)O[C@H]43)oc2cn1 [Example 714] | 0.5 to 5 µM
21 | CO[C@H](C)CNc1nc(Cl)c(-c2nc3ccccc3s2)c(N[C@@H]2C[C@H](CO)[C@@H](O)[C@H]2O)n1 [Example 230] | < 0.5 µM
22 | OC[C@H]1C[C@@H](Nc2nc(NCC3CCOCC3)nc(Cl)c2-c2nc3ccccc3s2)[C@H](O)[C@@H]1O [Example 447] | < 0.5 µM
23 | CCCCCNc1nc(C)c(-c2nc3ccccc3s2)c(N[C@@H]2CC[C@@H](O)[C@H]2O)n1 [Example 327] | < 0.5 µM
24 | CCCCCNc1nc(Cl)c(-c2cc3cc(CCC)nc(C)c3o2)c(N[C@@H]2C[C@H](CO)[C@@H](O)[C@H]2O)n1 [Example 446] | < 0.5 µM
25 | Cc1csc(CNc2nc(C)c(-c3nc4ccccc4s3)c(N[C@@H]3C[C@H](CO)[C@@H](O)[C@H]3O)n2)n1 [Example 707] | < 0.5 µM
26 | Cc1nc(NCc2cccs2)nc(N[C@@H]2C[C@H](CO)[C@@H](O)[C@H]2O)c1-c1nc2ccccc2s1 [Example 329] | < 0.5 µM
27 | CCC(C)(C)Nc1nc(Cl)c(-c2nc3ccccc3s2)c(N[C@@H]2C[C@H](CO)[C@@H](O)[C@H]2O)n1 [Example 506] | < 0.5 µM
28 | Cc1nc(NC(CF)CF)nc(N[C@@H]2C[C@H](CO)[C@H]3OC(C)(C)O[C@H]32)c1-c1nc2ccccc2s1 [Example 136] | 0.5 to 5 µM

Same assay, conditions: Hepatitis C virus, 72 h, HCV replicon cells, replicon RNA level by real time PCR (Taqman), day 3; calculated EC90; read-out: EC90 (μM) range

Row | SMILES | EC90
29 | Cc1ccc([C@H](Nc2nc(C)c(-c3nc4ccccc4s3)c(N[C@@H]3C[C@H](CO)[C@H]4OC(C)(C)O[C@H]43)n2)C(F)(F)F)cc1 [Example 2004] | 0.5 to 5 µM

Same assay, conditions: Hepatitis C virus, 72 h, HCV replicon cells, replicon RNA level by real time PCR (Taqman), harvested on day 3; calculated EC90 reported as range class; read-out: EC90 (μM) range

Row | SMILES | EC90
30 | Cc1nc(NCC2CC2)nc(N[C@@H]2C[C@H](CO)[C@H]3OC(C)(C)O[C@H]32)c1-c1nc2cc(OC(F)F)c(OC(F)F)cc2s1 [Example 1005] | > 5 µM
31 | Cc1nc(NCC(C)(C)C)nc(N[C@@H]2C[C@H](CO)[C@@H](O)[C@H]2O)c1-c1nc2c(C)nccc2s1 [Example 1319] | < 0.5 µM
32 | Cc1nc(Nc2cccc(OC(F)(F)F)c2)nc(N[C@@H]2C[C@H](CO)[C@@H](O)[C@H]2O)c1-c1nc2ccccc2s1 [Example 1237] | > 5 µM
33 | CCOCCNc1nc(C)c(-c2nc3c(C)nccc3s2)c(N[C@@H]2C[C@H](CO)[C@@H](O)[C@H]2O)n1 [Example 535] | < 0.5 µM
34 | Cc1nc(NCC(C)(C)F)nc(N[C@@H]2C[C@H](CO)[C@@H](O)[C@H]2O)c1-c1nc2ccccc2s1 [Example 1243] | 0.5 to 5 µM
35 | COc1cccc2sc(-c3c(C)nc(NCC4CC4)nc3N[C@@H]3C[C@H](CO)[C@@H](O)[C@H]3O)nc12 [Example 1067] | < 0.5 µM
36 | COc1cccc(Nc2nc(C)c(-c3nc4ccccc4s3)c(N[C@@H]3C[C@H](CO)[C@H]4OC(C)(C)O[C@H]43)n2)c1OC [Example 1128] | > 5 µM
37 | Cc1nc(NC2(c3ccccc3)CC2)nc(N[C@@H]2C[C@H](CO)[C@@H](O)[C@H]2O)c1-c1nc2ccccc2s1 [Example 1232] | 0.5 to 5 µM
38 | Cc1nc(Nc2ccccc2F)nc(N[C@@H]2C[C@H](CO)[C@@H](O)[C@H]2O)c1-c1nc2ccccc2s1 [Example 1043] | > 5 µM
39 | COc1cc(CNc2nc(C)c(-c3nc4ccccc4s3)c(N[C@@H]3CC[C@@H](O)[C@H]3O)n2)cc(OC)c1 [Example 1206] | 0.5 to 5 µM
40 | Cc1nc(Nc2ccccc2OC(F)(F)F)nc(N[C@@H]2C[C@H](CO)[C@@H](O)[C@H]2O)c1-c1nc2ccccc2s1 [Example 1236] | > 5 µM
41 | Cc1nc(NCc2cccc(O)c2)nc(N[C@@H]2C[C@H](CO)[C@@H](O)[C@H]2O)c1-c1nc2ccccc2s1 [Example 1212] | < 0.5 µM
42 | Cc1nc(NCC(C)(C)CC2CC2)nc(N[C@@H]2C[C@H](CO)[C@@H](O)[C@H]2O)c1-c1nc2cnccc2s1 [Example 1318] | < 0.5 µM
43 | COc1nc(C)cc2cc(-c3c(C)nc(NCC4CC4)nc3N[C@@H]3C[C@H](CO)[C@@H](O)[C@H]3O)oc12 [Example 1239] | 0.5 to 5 µM

Same assay, conditions: Hepatitis C virus, 72 h, HCV replicon cells, replicon RNA level by real time PCR, harvested day 3; read-out: EC90 (μM) range

Row | SMILES | EC90
44 | CCCc1nccc2sc(-c3c(C)nc(N[C@H](C)C4CC4)nc3N[C@@H]3C[C@H](CO)[C@@H](O)[C@H]3O)nc12 [Example 1346] | < 0.5 µM
45 | Cc1nc(NCc2cc3cn[nH]c3cc2F)nc(N[C@@H]2C[C@H](CO)[C@@H](O)[C@H]2O)c1-c1nc2cnccc2s1 [Example 1911] | < 0.5 µM
46 | Cc1nc(NCC(F)(F)F)nc(N[C@@H]2C[C@H](CN)[C@@H](O)[C@H]2O)c1-c1nc2ccccc2s1 [Example 1519] | 0.5 to 5 µM
47 | Cc1nc(NCC(F)(F)F)nc(N[C@@H]2C[C@H](C(C)O)[C@@H](O)[C@H]2O)c1-c1nc2ccccc2s1 (some centres unmarked) [Example 1632] | < 0.5 µM
48 | Cc1nc(N[C@H](C)c2ccc(OC(F)(F)F)cc2)nc(N[C@@H]2C[C@H](CO)[C@@H](O)[C@@]2(C)O)c1-c1nc2cnccc2s1 [Example 1397] | < 0.5 µM
49 | Cc1nc(NCC(F)(F)F)nc(N[C@@H]2C[C@H](CO)[C@@H](O)[C@@]2(C)O)c1-c1nc2cnccc2s1 [Example 1709] | < 0.5 µM
50 | Cc1nc(N[C@H](C)C2CC2)nc(N[C@@H]2CC[C@@H](O)[C@@]2(C)O)c1-c1nc2cnccc2s1 [Example 1811] | < 0.5 µM
51 | CCO[C@@H]1[C@H](O)[C@@H](CO)C[C@H]1Nc1nc(NCC(F)(F)F)nc(C)c1-c1nc2ccccc2s1 [Example 1352] | < 0.5 µM
52 | Cc1nc(N[C@H](C)C(F)(F)F)nc(N[C@@H]2C[C@H](CO)[C@@H](O)[C@H]2O)c1-c1nc2ccccc2s1 [Example 1623] | 0.5 to 5 µM
53 | COC[C@@H](Nc1nc(C)c(-c2nc3c(C)nccc3s2)c(N[C@@H]2C[C@H](CO)[C@@H](O)[C@H]2O)n1)c1ccccc1 [Example 1364] | 0.5 to 5 µM
54 | Cc1nc(N[C@H](C)c2cccc(F)c2)nc(N[C@@H]2C[C@H](CO)[C@@H](O)[C@H]2O)c1-c1nc2c(C)nccc2s1 [Example 1524] | < 0.5 µM
55 | Cc1nc(NC2CCC2)nc(N[C@@H]2C[C@H](CO)[C@@H](O)[C@H]2O)c1-c1nc2ccccc2s1 [Example 1503] | 0.5 to 5 µM
56 | Cc1nc(N[C@@H](c2cccs2)C(F)(F)F)nc(N[C@@H]2C[C@H](CO)[C@@H](O)[C@H]2O)c1-c1nc2ccccc2s1 [Example 1801] | < 0.5 µM
57 | C=CCNc1nc(C)c(C2=NC3=C=CC=CC3S2)c(N[C@@H]2C[C@H](CO)[C@@H](O)[C@H]2O)n1 (some centres unmarked) [Example 1906] | 0.5 to 5 µM
58 | Cc1nc(NCc2c(F)cccc2F)nc(N[C@@H]2CC[C@@H](O)[C@@]2(C)O)c1-c1nc2c(C)nccc2s1 [Example 1814] | < 0.5 µM
59 | Cc1nc(NCC(F)(F)F)nc(N[C@@H]2C[C@H](CN3CCOC3=O)[C@@H](O)[C@H]2O)c1-c1nc2ccccc2s1 [Example 1400] | < 0.5 µM
